Laboratory results published in PMC6341082 (Translational Psychiatry, 2019).

Experiments:
Adnp+/- mice [1] = assay: Hanging wire test; format: in vivo, mouse; conditions: significant vs vehicle
Description: (§1) Experiments were performed as previously described[8],[30],[40]. […] The behavioral assays were then initiated together with a continuous drug application. For detailed description of the object recognition test and the social approach task, please see supplemental materials and methods. In the odor discrimination test, odors were presented on a suspended cotton swab to the test mouse placed into the clean cage with fresh shavings. Each mouse was tested during three consecutive 2-min periods for each odor, with 2-min intervals between presentations. The time that the mouse smelled the swab was recorded (beginning whenever the animal oriented its nostrils toward the cotton swab, within 2 cm or less)[8],[30]. The hanging wire test measuring the strength of the mouse paws by using the latency to fall off an inverted cage lid (placed 50 cm above the surface) onto a soft bedding (maximum time 90 sec), was performed as previously described[5],[40]. Data are expressed as mean ± SEM.

Adnp+/- mice [2] = assay: Social approach task (social recognition and social memory); format: in vivo, mouse
Description: (§2) Experiments were performed as previously described[8],[30],[40]. Three–six-month-old male mice were used, and NAP-CB was administered once daily (0.5 µg/5 µl/mouse) for one month. The behavioral assays were then initiated together with a continuous drug application. For detailed description of the object recognition test and the social approach task, please see supplemental materials and methods. In the odor discrimination test, odors were presented on a suspended cotton swab to the test mouse placed into the clean cage with fresh shavings. Each mouse was tested during three consecutive 2-min periods for each odor, with 2-min intervals between presentations. The time that the mouse smelled the swab was recorded (beginning whenever the animal oriented its nostrils toward the cotton swab, within 2 cm or less)[8],[30]. The hanging wire test measuring the strength of the mouse paws by using the latency to fall off an inverted cage lid (placed 50 cm above the surface) onto a soft bedding (maximum time 90 sec), was performed as previously described[5],[40]. Data are expressed as mean ± SEM.
Social approach: A plexiglas box was divided into three adjacent chambers, each 20 cm (length) × 40.5 cm (width) × 22 cm (height), separated by two removable doors. Steel wire pencil cups (10.16 cm (diameter), 10.8 cm (height)), www.kitchen-plus.com, were used as both containment for the target mice and as inanimate objects (weights prevented the mice from overturning the cups). […] The next day, each subject mouse was tested in an experiment with three phases, each 10-min long (measured with a simple timer): I and II, the habituation phases (ensuring no bias), and III, the experimental phase. […] Mouse movement and exploratory behavior were tracked and recorded using the EthoVision XT video tracking system and software (Noldus Inc. Leesburg, VA). The discrimination capacity (social memory) was analyzed using the formula: D2 = (b-a)/(b+a), where ‘a’ designated the time of exploration of the familiar mouse and 'b' designated the time of exploration of the novel mouse.

[3] = system: hippocampus of Adnp+/- mice; assay: Diffusion tensor imaging (DTI) MRI of chronically treated brains; format: in vivo, mouse
From the text: Seven–eight-month-old male mice underwent MRI on a 7.0 T/30 spectrometer (Bruker, Rheinstetten, Germany) using a volume coil for excitation and a rat quadrature coil for acquisition. The MRI protocol used here was the DTI.
DTI was obtained using a diffusion-weighted (DW) spin-echo echo-planar-imaging (EPI) pulse sequence with the following parameters: TR/TE = 4000/25 ms, Δ/δ = 10/4.5 ms, 4 EPI segments and 32 non-collinear gradient directions with a single b value (1000 sec/mm^2) and two images with b value of 0 sec/mm^2 (referred to as b0). Geometrical parameters were: 24 slices of 0.5 mm thickness, matrix size of 128 × 128 and FOV of […]). The imaging protocol was repeated three times for signal averaging and to compensate for acquisition where significant head motion was observed. Image analysis included DTI analysis of the DW-EPI images to produce the mean diffusivity (MD) and fractional anisotropy (FA) indexed maps following a two-way ANOVA with Tukey post-hoc test.

[4] = system: Slc17a7 gene encoding VGLUT1; assay: Gene expression analysis (quantitative RT-PCR); format: in vivo, mouse
Description: Hippocampal and cerebral cortical RNA of mouse that were 7.5-month-old were extracted using TRI Reagent® (T9424, Sigma-Aldrich, MO, USA). A volume of 1 μg RNA/sample was then subjected to reverse transcription (RT) using qScript cDNA Synthesis Kit (Quanta Biosciences, Gaithersburg, MD, USA). Further Real-time PCR analysis was performed using PerfeCta^TM SYBR® Green FastMix^TM, Low ROX^TM (Cat. No. 95074–012, Quanta Biosciences, Gaithersburg, MD, USA) and the QuantStudio 12 K Flex Real-Time PCR System (Thermo Fisher Scientific, Waltham, MA, USA). RNA expression levels were determined using specific mouse primers: Slc17a7 gene encoding VGLUT1, sense 5′-[…]-3′, anti-sense 5′-[…]-3′. Hypoxanthine-guanine phosphoribosyltransferase (Hprt) was selected as a stable reference gene with appropriate primers for mouse, sense 5′-[…]-3′, anti-sense 5′-[…]-3′. Results are presented as 2^-ΔCT[42].

VGLUT1 = assay: Immunohistochemistry; format: in vivo, mouse; conditions: male Adnp+/- mice
Description: Immunohistochemistry was carried out as previously described. Briefly, paraffin sections were deparaffinized, rehydrated in graded alcohols, and antigen retrieval was performed with citrate buffer pH 6. Endogenous peroxidase was blocked with 3% H2O2 in methanol and was followed by incubation in the appropriate blocking buffer for 30 min. Sections were incubated overnight at 4 °C with the primary antibodies against VGLUT1 (Santa Cruz Biotechnology, sc-13320). The secondary antibody used was Rabbit Anti-Goat IgG (EMD Millipore, AP106B). Immunoreactions were visualized with the aim of Avidin-Peroxidase (Sigma- Aldrich Chemical), and 3,3′-Diaminobenzidine (DAB, brown color, Sigma-Aldrich Chemical) was utilized as chromogen. Sections were then counterstained with hematoxylin (light blue color).
Sections were further examined under optical microscope Zeiss Axioplan-2 with the aid of a CCD camera (Nikon DS-5M) for observations of the slides. In average, 25 optical fields were examined from each group under a magnification of ×40. Measurements were performed with Image J software (1.43 u) in the areas of the hippocampus and the cortex. The results were expressed as area/mm^2 (as previously described[14]), representing the area of DAB positive signal in each photo divided by the total area of the same photo. An additional parameter measured was the Integrated Density, calculating and displaying […]: the product of Area and Mean Gray Value.

Adnp+/- mice [5] = assay: Object recognition test; format: in vivo, mouse; conditions: male Adnp+/+ mice (Supplemental Fig. S2A, B)
Description: as §2, with “The hanging wire test measuring the strength of the mouse paws by using the latency to fall off an inverted cage lid (placed 50 cm above the surface) onto a soft bedding (maximum time 90 sec), was performed as previously described[5],[40].” left out
Object recognition: The test included two consecutive days of habituation (5 min per day) and the experimental day which consisted of the three phases. […] The time spent sniffing/touching each object was measured. Mouse movement and exploratory behavior were tracked and recorded using the EthoVision XT video tracking system and software (Noldus Inc. Leesburg, VA). […]

Adnp+/- mice [6] = assay: Odor discrimination test; format: in vivo, mouse
Description: as §1

patients = conditions: cited from earlier work
From the text: Together, these studies attest to preclinical efficacy, holding a promise for clinical effectiveness. […] Nevertheless, in a study performed in severely affected individuals suffering from progressive supranuclear palsy (PSP), belonging to the family of rapidly progressing frontotemporal neurodegener ...

Adnp deficiency in mice = system: Adnp deficiency in mice; parameters: method as in PMID 26782054; conditions: cited from earlier work

NAPVSIPQ
hanging wire test, latency to fall (Adnp+/- mice [1]; female Adnp+/- mice (Supplemental Fig. S2F)): ameliorating this behavior
hanging wire test, latency to fall (Adnp+/- mice [1]; male Adnp+/- mice, maximum time 90 sec): amelioration
social recognition, sniffing time mouse vs cup (Adnp+/- mice [2]; NAP-treated Adnp+/- male mice, p < 0.001 vs. cup): significant differences between sniffing time of the cup (c) and mouse (M)
social memory (D2, novel vs familiar mouse) (Adnp+/- mice [2]; female Adnp+/- mice, n = 3-4 per group, p < 0.001 vs vehicle (Supplemental Fig. S2D)): improved social memory
social recognition, preference mouse vs object (Adnp+/- mice [2]; females (Supplemental Fig. S2C), n = 3-4 per group): significant preference to mice rather than objects
hippocampal mean diffusivity (MD), NAP- vs CB-treated ([3]; male Adnp+/+ mice (Supplemental Fig. S3A)): no significant differences in MD
hippocampal fractional anisotropy (FA) ([3]; male Adnp+/+ mice (Supplemental Fig. S3B)): not affected
hippocampal mean diffusivity (MD), effect on increase in Adnp+/- ([3]; male Adnp+/- mice, 7-8 months old, -1.84 mm from Bregma, n = 4-6 per group): although insignificant, was slightly reduced
cerebral cortex VGLUT1 expression (reduced in Adnp+/-) ([4]; female Adnp+/- mice, n = 3-4 per group (Supplemental Fig. S4B)): no effect
hippocampal VGLUT1 gene expression ([4]; females, n = 3-4 per group (Supplemental Fig. S4A)): not affected
VGLUT1 transcript, cerebral cortex ([4]; male Adnp+/- mice, 2^-ΔCT normalized to Hprt, n = 4 per group): small, albeit significant decrease
Slc17a7 (VGLUT1) gene expression, hippocampus (decrease in Adnp+/-) ([4]; male Adnp+/- mice, 7.5-month-old, 2^-ΔCT normalized to Hprt, n = 4 per group): completely reversed
VGLUT1 protein, intensity (Integrated Density), cortex (VGLUT1): trend of improvement
VGLUT1 protein, area counting (area/mm^2), hippocampus (VGLUT1; five animals per group, technical replicates, p < 0.001 vs CB): full protection
VGLUT1 protein, area counting (area/mm^2), cerebral cortex (VGLUT1; five animals per group, technical replicates, p < 0.05 vs CB): full protection
VGLUT1 protein, intensity (Integrated Density), hippocampus (VGLUT1; p < 0.001 vs CB): significant
object recognition, relative discrimination, short and long retention choice phases, NAP- vs CB-treated (Adnp+/- mice [5]): no significant differences
total odor sniffing time (AUC) (Adnp+/- mice [6]; female Adnp+/- mice, NAP vs CB vehicle, p < 0.05): significantly reduced
odor discrimination ability (novel vs. familiar odor), differences between experimental groups (Adnp+/- mice [6]; females (Supplemental Fig. S2E)): no significant differences
total time spent with the different odors (AUC) (Adnp+/- mice [6]; male Adnp+/- mice, NAP vs CB vehicle, p < 0.05): significantly increased
odor discrimination ability (novel vs. familiar odor), differences between experimental groups (Adnp+/- mice [6]; males): no significant differences were observed between experimental groups
cognitive scores (patients; amnestic mild cognitive impairment patients): increase in cognitive scores
functional activities of daily living (patients; schizophrenia patients): protection of functional activities of daily living
efficacy in progressive supranuclear palsy (PSP) (patients; severely affected individuals suffering from PSP): did not show efficacy

SKIP
impaired axonal transport (Adnp deficiency in mice): ameliorated
